Legend:
[1] = test system: human VEGF promoter driven GFP reporter; assay: Direct confocal detection of GFP induction in intact skin of living hairless VEGF-GFP transgenic mice; format: in vivo; conditions: TPA applied to back skin of anaesthetized hairless VEGF-GFP mouse, after 12hrs, compared with acetone on the same individual
Description: To examine whole intact skin on living transgenic mouse with confocal microscope, hairless VEGF-GFP transgenic mice were anaesthetized with avertin by intraperitoneal injection. They were placed directly on the petri dish with dorsal position. TPA or acetone treatment was performed on the back skin same as described above marking treated area with an ink to ease the orientation of the skin. Sections or intact skin of the mice were analyzed using Leica DM IRBE inverted microscope and Leica TCS NT4D confocal microscope system with band pass filter 530/30 nm, detecting emission at wavelengths between 515-545 nm.
To test whether the induction of GFP is directly detected in the skin of a living VEGF-GFP transgenic mouse, acetone or TPA applied skin of the transgenic hairless mouse (same individual) was directly examined by confocal imaging under anaesthetized condition. […] X-Z confocal imaging confirmed that this signal was within the basal layer of the epidermis.

[2] = test system: human VEGF promoter driven GFP reporter; assay: Induction of epidermal GFP by topical TPA in VEGF-GFP transgenic mouse skin (fluorescence microscopy of skin biopsy sections); format: in vivo; conditions: single dose of 5 μg TPA in acetone, topical on back skin, biopsy after 12 hours; acetone alone showed only basal levels
Description: Tissue preparation for GFP detection and epimicroscopic observation solutions washed out or diffused GFP-derived fluorescence from the site of GFP expression. Ultimately, a freshly dissected, unfixed tissue block, was directly cut into 12 μm thick frozen sections using a cryostat. Epifluorescent microscopic observation was performed immediately after sectioning, without mounting medium or extended slide storage, using FITC/TRITC double excitation and an emission filter Chroma, *VT) to distinguish the GFP-derived fluorescent signal from tissue autofluorescence.
For induction of VEGF mRNA by TPA, a single dose of 5 μg TPA in acetone was topically applied to back skin of transgenic mice and skin biopsy samples were collected after 12 hours.
Induction of epidermal GFP by phorbolester application was also examined. […] This signal seemed to localize to the basoplateral surface of the epithelium rather than in either the keratinocyt cytosol or nucleus.

VEGF = conditions: topical application of phorbolesters; cited from earlier work

SMILES: CCCCCCCCCCCCCC(=O)O[C@@H]1[C@@H](C)[C@@]2(O)[C@@H](C=C(CO)C[C@]3(O)C(=O)C(C)=C[C@@H]23)[C@H]2C(C)(C)[C@]12OC(C)=O [TPA]
- GFP fluorescence positive area in living epidermis (confocal imaging) [1]: increase of fluorescence positive area
- GFP fluorescent signal in epidermis of transgenic skin [2]: Accumulation of fluorescent signal was observed
- expression of VEGF in epidermal keratinocytes (VEGF): up-regulated
